For one molecule, luminescence emission spectrum results are on record in paper PMC3501149 (ACS Chemical Biology, 2012).

The target in this experiment is firefly luciferase (Fluc) (Photinus pyralis, UniProt P08659). As to the kind of experiment: luminescence emission spectrum. The experiment is classed as biochemical.
Sequence of firefly luciferase (Fluc) (P08659 whole entry): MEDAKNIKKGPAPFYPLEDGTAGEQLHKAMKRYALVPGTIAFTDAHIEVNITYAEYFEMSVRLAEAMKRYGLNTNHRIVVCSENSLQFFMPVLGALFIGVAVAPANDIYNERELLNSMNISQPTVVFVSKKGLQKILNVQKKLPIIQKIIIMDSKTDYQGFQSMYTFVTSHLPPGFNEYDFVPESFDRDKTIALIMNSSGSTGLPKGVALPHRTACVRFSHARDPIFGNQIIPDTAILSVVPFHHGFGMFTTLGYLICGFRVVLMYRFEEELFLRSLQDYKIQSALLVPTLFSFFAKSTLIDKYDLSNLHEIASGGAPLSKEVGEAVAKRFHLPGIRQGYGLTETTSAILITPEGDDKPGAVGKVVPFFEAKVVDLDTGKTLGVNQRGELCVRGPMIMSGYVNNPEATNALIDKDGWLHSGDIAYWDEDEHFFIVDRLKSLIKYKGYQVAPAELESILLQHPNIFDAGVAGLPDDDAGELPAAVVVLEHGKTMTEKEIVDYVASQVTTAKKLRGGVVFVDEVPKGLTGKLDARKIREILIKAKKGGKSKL

For `O=C(O)[C@H]1CSC(c2nc3ccc(O)cc3s2)=N1` [D-luciferin], the luminescence emission spectrum entry is recorded as “Fluc (D-luciferin)”.
